Experimental data from patent US8420119B2, “Drug composition for treating tumor with polymeric micelle encapsulating anti-neoplastic” (Industrial Technology Research Institute, priority 2009, dated 2013).
Converted amounts (≈) assume the structure as drawn.

Tests used:
AGS = test: MTT assay AGS; type: cell-based, human; conditions: Stomach, 72 hours
Protocol: (§1) Various human cancer lines, such as A549, AS2, and H460, were implanted onto multi-well plates and Dulbecco's Modified Eagle Media (high glucose) with 10% of fetal bovine serum and 1% of P/S being added to each well. […] Then a 20 μL of 0.5 mg/ml MTT (3-(4,5-dimethylthiazol-2-yl)-2,5-diphenyltetrazolium bromide) solution was added to each well to start the reaction. After 2 hours, the suspension of each well was removed and DMSO was added into the well to dissolve formazan, which was formed during the reaction. The living cell concentration was then obtained by analyzing the OD570 and OD600 data of each well.

OVCAR-3 = test: MTT assay OVCAR-3; type: cell-based, human; conditions: Ovarian, OVCAR-3, 72 hours
Protocol: as §1

SK-HEP-1 = test: MTT assay SK-HEP-1; type: cell-based, human; conditions: Liver, SK-HEP-1, 72 hours
Protocol: as §1

U-87 MG = test: MTT assay U-87 MG; type: cell-based, human; conditions: Brain, 72 hours
Protocol: as §1

MCF-7 = test: MTT assay MCF-7; type: cell-based, human; conditions: Breast, MCF-7, 72 hours
Protocol: as §1

5637 = test: MTT assay 5637; type: cell-based, human; conditions: Bladder, 5637, 72 hours
Protocol: as §1

AS2 = test: MTT assay AS2; type: cell-based, human; conditions: Lung, AS2, 72 hours
Protocol: as §1

RPMI2650 = test: MTT assay RPMI2650; type: cell-based, human; conditions: Nasalseptum, RPMI2650, 72 hours
Protocol: as §1

[1] = In vivo kinetic test of SN38; design: species or system SD mice; conditions: for lactone form SN38 in plasma: 4 mg/kg SN38 vein injection
Protocol: The concentrations of lactone form SN38 in bloods over the time were then determined by HPLC.
T1/2 (hr), AUCINF(hr*ng/ml), CL(mL/hr/kg), and Vss (mL/kg) in Table 7 represent half-life time, […], area under the curve to infinity, clearance, and volume of distribution at steady state, and the units thereof, respectively. The n represents sample number. These parameters can be measured and/or calculated according to the techniques known in the art.

Colo 205 = test: MTT assay Colo 205; type: cell-based, human; conditions: Colorectal, Colo 205, 72 hours
Protocol: as §1

PC-3 = test: MTT assay PC-3; type: cell-based, human; conditions: Prostate, PC-3, 72 hours
Protocol: as §1

H460 = test: MTT assay H460; type: cell-based, human; conditions: Lung, H460, 72 hours
Protocol: as §1

A549 = test: MTT assay A549; type: cell-based, human; conditions: Lung, A549, 72 hours
Protocol: as §1

hepG2/C3A = test: MTT assay hepG2/C3A; type: cell-based, human; conditions: Liver, 72 hours
Protocol: as §1

SCC-25 = test: MTT assay SCC-25; type: cell-based, human; conditions: Tongue, SCC-25, 72 hours
Protocol: as §1

HT29 = test: MTT assay HT29; type: cell-based, human; conditions: Colorectal, HT29, 72 hours
Protocol: as §1

[2] = plasma SN38, 4 mg/kg vein injection

## CCc1c2c(nc3ccc(O)cc13)-c1cc3c(c(=O)n1C2)COC(=O)[C@]3(O)CC [SN38, 7-ethyl-10-hydroxycamptothecin]
AGS
  IC50: 0.04022 ± 0.01424 µg/mL (≈ 0.102 µM)
OVCAR-3
  IC50: 0.02273 ± 0.00214 µg/mL (≈ 0.0579 µM)
SK-HEP-1
  IC50: 0.01521 ± 0.00133 µg/mL (≈ 0.0388 µM)
U-87 MG
  IC50: 0.01022 ± 0.0026 µg/mL (≈ 0.026 µM)
MCF-7
  IC50: 0.06093 ± 0.04886 µg/mL (≈ 0.155 µM)
5637
  IC50: 0.00036 ± 3e-05 µg/mL (≈ 0.000917 µM)
AS2
  IC50: 0.00176 ± 0.00023 µg/mL (≈ 0.00449 µM)
RPMI2650
  IC50: 0.00097 ± 7e-05 µg/mL (≈ 0.00247 µM)
[1]; 0.1 Hour(s)
  lactone form SN38 in plasma: 710.8 ng/mL
[1]; 0.2 Hour(s)
  lactone form SN38 in plasma: 505.3 ng/mL
[1]; 0.3 Hour(s)
  lactone form SN38 in plasma: 265.3 ng/mL
[1]; 0.500 Hour(s)
  lactone form SN38 in plasma: 143.4 ng/mL
[1]; 1.0 Hour(s)
  lactone form SN38 in plasma: 32.3 ng/mL
[1]; 2.0 Day(s)
  lactone form SN38 in plasma: 12.5 ng/mL
[1]; 4.0 Day(s)
  lactone form SN38 in plasma: 9.0 ng/mL
[1]; 8.0 Day(s)
  lactone form SN38 in plasma: 7.3 ng/mL
[1]; 24.0 Day(s)
  lactone form SN38 in plasma: 1.0 ng/mL
[1]; [2]
  AUCINF: 417 ng·h/mL
  CL: 41.5 mL/min/kg
  T1/2: 6.2 h
  Vss: 34.3 L/kg
Colo 205
  IC50: 0.00563 ± 0.00096 µg/mL (≈ 0.0143 µM)
PC-3
  IC50: 0.0959 ± 0.02127 µg/mL (≈ 0.244 µM)
H460
  IC50: 0.00318 ± 0.00026 µg/mL (≈ 0.0081 µM)
A549
  IC50: 0.01387 ± 0.00123 µg/mL (≈ 0.0353 µM)
hepG2/C3A
  IC50: 0.0287 ± 0.0092 µg/mL (≈ 0.0731 µM)
SCC-25
  IC50: 0.01971 ± 0.01128 µg/mL (≈ 0.0502 µM)
HT29
  IC50: 0.0034 µg/mL (≈ 0.00866 µM)
